Test results: patent publication US8048927B2 (Besins Healthcare Luxembourg, priority 2004, dated 2011)

Test: tolerance of 4-hydroxy tamoxifen gel in healthy premenopausal women (Example 3)
Procedure: Each participant applied the gel daily for the duration of two menstrual cycles.
On the first day of the following menstruation, treatment, which consisted of daily application of the gel over two menstrual cycles, began. Blood samples were collected 24 hours following the morning application of gel on days 7, 20 and 25 of the first and second cycles. On the last day of administration, day 25 of the second menstrual cycle, serial blood samples were collected prior to application and at 0.5, 1, 1.5, 2, 3, 4, 6, 12, 18, 24, 36, 48, and 72 hours after application of the gel.

## CCC(=C(c1ccc(O)cc1)c1ccc(OCCN(C)C)cc1)c1ccccc1 [4-hydroxy tamoxifen, 1-[4-(2-N-dimethylaminoethoxy)phenyl]-1-(4-hydroxyphenyl)-2-phenylbut-1-ene]
36 patients
  patients who developed an allergic reaction to the gel: One
36 patients, 5 had a past history of acne
  patients who reported facial acne: 10
All 36 patients, daily gel over two menstrual cycles
  biological tolerance: excellent
During the menstrual cycles
  effect on FSH, LH, estradiol, or progesterone hormone levels: did not affect
End of treatment, all patients
  echographic examination of the ovaries: normal in all patients
Topical application
  laboratory or clinical evidence of systemic effects: no detectable laboratory or clinical evidence of systemic effects
